How the values were obtained:
[1] = system: NCI-N87 human gastric carcinoma (HER2 overexpressing) xenografts; test: refractory T-mab/P-mab model Step I; format: in vivo, male nude mice (BALB/cAJcl-mu/mu)
Procedure: Male nude mice (BALB/cAJcl-mu/mu) were implanted with NCI-N87 human gastric carcinoma (HER2 overexpressing); 1.0×10^7 cells in 100 μL of PBS were implanted subcutaneously per mouse.

[2] = system: MDA-MB-175VII cells (DOC4-NRG1 fusion); test: growth inhibitory effect in NRG1 fusion-driven cancer cell line (GI50); format: cell-based; settings: Homo sapiens, mean of 3-4 independent experiments
Procedure: GI50 values were also determined for currently approved EGFR/HER2 tyrosine kinase inhibitors: afatinib, osimertinib, tucatinib, lapatinib, and neratinib, and one investigational drug (poziotinib). Mean values were determined from 3-4 independent experiments.

[3] = system: NCI-N87 xenografts relapsed from T-DM1; settings: 10 mg/kg/day iv Day 1
Procedure: Male nude mice (BALB/cAJ1-mu/mu) were implanted with NCI-N87 human gastric carcinoma (HER2 overexpressing); 1.0×10^7 cells in 100 μL of PBS were implanted subcutaneously per mouse.
PO; or treated with an oral suspension of Compound (1) once per day at a dosage of 25 mg/kg/day, PO. The tumor volumes (TV, mm^3) and body weights of the mice were recorded.

[4] = system: NCI-N87 tumor fragment #6, clone 3; test: refractory T-DM1 monoclonal cell line model, comparison to DS-8201a; format: in vivo, male mice; settings: single iv dose of 10 mg/kg T-DM1
Procedure: The obtained cell line was implanted into BALB/cAJcl-mu/nu male mice (8.0×10^6 cells in 100 μL of PBS/mouse, subcutaneous) for the efficacy test.
The tumor volumes (TV, mm) and body weights of the mice were recorded.

SK-BR-3 cells = test: feedback activation of HER3, downstream targets and apoptosis markers in SK-BR-3 cells; format: cell-based, human; settings: for phosphorylation of HER2, HER3, and their downstream targets: 3 hours; for phosphorylation of HER2, HER3, and their downstream targets / BIM and cleaved PARP: 30 to 300 nmol/L; for phosphorylation of HER2, HER3, and their downstream targets (AKT and ERK) / BIM and cleaved PARP: 48 hours
Excerpt: The effect of Compound (1) on feedback activation of HER3, its downstream targets (ERK and AKT), and apoptosis markers (BIM and cleaved PARP) in SK-BR-3 cells was investigated. In addition, the same information for lapatinib and tucatinib (a reversible inhibitor of HER2) was obtained.

[5] = system: NCI-N87 human gastric carcinoma xenografts; test: antitumor effect in nude mice bearing NCI-N87 xenografts; format: in vivo; settings: Day 15
Procedure: The antitumor effect of Compound (1) was evaluated in nude mice bearing HER2-overexpressing NCI-N87 human gastric carcinoma xenografts. Compound (1) dosing suspensions using 0.5% w/v hydroxypropyl methylcellulose (HPMC) as vehicle were prepared at 4 dose levels (3.1, 6.3, 12.5, and 25.0 mg/kg/day) and administered orally once daily for 14 days. In addition, the antitumor effect of poziotinib, which is a pan-ErbB inhibitor and currently under clinical development for the treatment of cancer with epidermal growth factor receptor containing HER2 exon 20 insertion mutations, was also evaluated using this model. Poziotinib was administered orally once daily for 14 days at 2 dose levels (0.5 or 1.0 mg/kg/day). The control group received 0.5% w/v HPMC once daily for 14 days.

[6] = system: MCF10A_HER2/insYVMA_v human mammary epithelial xenografts; test: antitumor effect in nude mice bearing MCF10A_HER2/insYVMA_v xenografts; format: in vivo; settings: Day 15
Procedure: The antitumor effect of Compound (1) was evaluated in a nude mouse xenograft model of MCF10A_HER2/insYVMA_v. MCF10A_HER2/insYVMA_v was established as stably growing cells in vivo derived from MCF10A HER2/insYVMA (a human mammary epithelial cell line engineered to express the HER2 exon 20 insertion mutation A775_G776insYVMA) xenografts subcutaneously transplanted into nude mice. Compound (1) suspensions (using 0.5% w/v HPMC as vehicle) were administered orally once daily to mice at doses of 7.8, 12.5, or 20.0 mg/kg/day for 14 days. The control group received 0.5% weight per volume (w/v) hydroxypropyl methylcellulose (HPMC) solution orally once daily for 14 days.
In addition, the antitumor effect of poziotinib (an irreversible inhibitor of EGFR, HER2, and HER4) was also evaluated using this model.

[7] = system: intracranial NCI-N87-luc human gastric carcinoma xenografts; test: intracranial antitumor effect, NCI-N87-luc xenografts; format: in vivo, nude mice; settings: Day 22
Procedure: The intracranial antitumor effect of Compound (1) was evaluated using Compound (1) in nude mice intracranially implanted with NCI-N87-luc cells, which were engineered to stably express the luciferase gene using the HER2-overexpressing NCI-N87 human gastric carcinoma cell line. Compound (1) dosing suspensions using 0.5% w/v HPMC as vehicle were prepared with Compound (1) at 3 dose levels (16.0, 20.0, or 25.0 mg/kg/day) and administered PO QD for 21 days. The control group received 0.5% weight per volume (w/v) hydroxypropyl methylcellulose (HPMC) solution orally once daily for 21 days. The antitumor effect of poziotinib was also evaluated using this model. Poziotinib was administered PO QD for 21 days at 2 dose levels (0.5 or 1.0 mg/kg/day).

[8] = Step I Day 22, 20 mg/kg/day (each) ip Days 1, 8, 15

pertuzumab [P-mab]
RTV (mean ± SE) ([1]; Day 22 to Day 0 (Step I), 20 mg/kg/day (each) ip Days 1, 8, 15): 4.0 | T/C ([1]; Step I Day 22, vs non-treatment control, 20 mg/kg/day (each) ip Days 1, 8, 15): 76.5% | Number of Death [1, 8]: 0 | TV (mean ± SE) [1, 8]: 1233.1 mm^3 | BWC (mean ± SE) ([1]; mouse, in vivo, ip, 20 mg/kg/day): 10.20%

C=CC(=O)Nc1cc(Nc2nccc(-c3cn(C)c4ccccc34)n2)c(OC)cc1N(C)CCN(C)C [osimertinib]
GI50 [2]: 29.4 ± 1.5 nM

CCOc1cc2ncc(C#N)c(Nc3ccc(OCc4ccccn4)c(Cl)c3)c2cc1NC(=O)/C=C/CN(C)C [neratinib]
GI50 [2]: 3 ± 0.6 nM

trastuzumab emtansine [T-DM1]
RTV (mean ± SE) ([3]; Day 22 to Day 1 (Step II)): 1.73 | TV (mean ± SE) ([3]; Step II Day 22): 595.1 mm^3 | T/C ([3]; Step II Day 22, reference group): 100.0% | antitumor effect (tumor volume) [4]: failing to inhibit tumor growth

CS(=O)(=O)CCNCc1ccc(-c2ccc3ncnc(Nc4ccc(OCc5cccc(F)c5)c(Cl)c4)c3c2)o1 [lapatinib]
phosphorylation of HER2, HER3, and their downstream targets (SK-BR-3 cells): inhibited the phosphorylation | phosphorylation of HER2, HER3, and their downstream targets (AKT and ERK) (SK-BR-3 cells): increased again | BIM and cleaved PARP (SK-BR-3 cells): increased | GI50 [2]: 89.5 ± 39.5 nM

CN(C)C/C=C/C(=O)Nc1cc2c(Nc3ccc(F)c(Cl)c3)ncnc2cc1O[C@H]1CCOC1 [afatinib]
GI50 [2]: 5.6 ± 2.7 nM

C=CC(=O)N1CCC(Oc2cc3c(Nc4ccc(Cl)c(Cl)c4F)ncnc3cc2OC)CC1 [poziotinib, reference compound]
T/C ratio of the mean tumor volumes ([5]; 0.5 mg/kg/day orally once daily 14 days): 44.2% | T/C ratio of the mean tumor volumes ([5]; 1.0 mg/kg/day orally once daily 14 days): 8.8% | T/C ratio of the mean tumor volume ([6]; 0.5 mg/kg/day): 29.0% | T/C ratio of the mean tumor volume ([6]; 1.0 mg/kg/day): 8.3% | T/C ratio of the mean total flux ([7]; 0.5 mg/kg/day PO QD 21 days): 39.0% | mean body weight change (BWC) ([7]; 0.5 mg/kg/day): 2.5% | T/C ratio of the mean total flux ([7]; 1.0 mg/kg/day PO QD 21 days): 21.1% | mean body weight change (BWC) ([7]; 1.0 mg/kg/day): −0.3% | GI50 [2]: 0.3 ± 0.2 nM

Cc1cc(Nc2ncnc3ccc(NC4=NC(C)(C)CO4)cc23)ccc1Oc1ccn2ncnc2c1 [tucatinib]
phosphorylation of HER2, HER3, and their downstream targets (SK-BR-3 cells): inhibited the phosphorylation | phosphorylation of HER2, HER3, and their downstream targets (AKT and ERK) (SK-BR-3 cells): increased again | BIM and cleaved PARP (SK-BR-3 cells): increased | GI50 [2]: 27.6 ± 5.5 nM

Source: US20240238300A1, “TREATMENT METHODS FOR SUBJECTS WITH CANCER HAVING AN ABERRATION IN EGFR AND/OR HER2” (TAIHO PHARMACEUTICAL CO., LTD., priority 2021, published 2024)
